For ten compounds, IC50 and EC50 results are on record in patent US11286263B2, “Macrocyclic fluorine substituted indole derivatives” (The Broad Institute, Inc., priority 2017, dated 2022).

Values joined by “and” are separate entries in the source; they are usually repeats but may differ in a detail not shown here. Identical values can stand only once. Counter-ions that a name gives are not always drawn. Like-named read-outs stand apart in the source and are kept apart here.

The target in one data set is BCL-2 (Homo sapiens (Human), UniProt P10415). As to the kind of experiment: Protein-protein interaction assay BCL-2/Bad BH3 peptide (BCL-2 assay), TR-FRET. The data set is classed as binding. As to conditions: BCL-2/Bad BH3 peptide TR-FRET; median. As for the experimental part: Assay 3 Protein-Protein Interaction assay: BCL-2/Bad BH3 Peptide (BCL-2 Assay)
The dose-dependent inhibition by the compounds described in this invention of the interaction between BCL-2 and the BH3 domain of Bad (both human) was determined using a steady state binding competition assay with time-resolved fluorescence energy transfer (TR-FRET) readout. For that purpose BCL-2 (amino acids 1-211, C-terminal fused to a hexahistidine (6× His) tag (SEQ ID 5) and a synthetic Bad BH3-derived peptide of sequence Biotin-PEG2-PEG2-NLWAAQRYGRELRR-Nle-SDEFVDSFKK-amide (SEQ ID 4) served as protein receptor and tracer ligand respectively. The recombinant BCL-2 protein (expressed in E. coli) was purchased from BPS Bioscience (San Diego, Calif., USA). The Bad BH3-derived peptide can be obtained from e.g. Biosyntan (Berlin, Germany).
In the assay 11 different concentrations of each compound (0.1 nM, 0.33 nM, 1.1 nM, 3.8 nM, 13 nM, 44 nM, 0.15 μM, 0.51 μM, 1.7 μM, 5.9 μM and 20 μM) were typically measured as duplicates in the same microtiter plate. For that, 100-fold concentrated DMSO solutions were prepared by serial dilutions (1:3.4) of a 2 mM stock solution in a clear, 384-well microtiter plate (Greiner Bio-One, Frickenhausen, Germany). From there, 50 nl were transferred in a dark test plate (Greiner Bio-One, Frickenhausen, Germany). The assay was initiated by addition of 2 μl of a 2,5-fold concentrated His-BCL-2 solution (usually for a 1 nM end concentration in 5 μl reaction volume) in aqueous assay buffer [50 mM Tris/HCl pH 7, 100 mM sodium chloride (NaCl), 50 mM potassium fluoride (KF), 0.005% Tween-20, 2 mM DTT, 0.1% bovine gamma globulin (BGG)] to the compounds in the assay plate. This was followed by a 10-minute incubation step at 22° C. for pre-equilibration of the putative complex between His-BCL-2 and the compounds. After that, 3 μl of a 1.67-fold concentrated solution (in assay buffer) consisting of Bad BH3-derived peptide (1 nM end concentration) and TR-FRET detection reagents [1.67 nM anti-His-Eu cryptate and 1.67 nM streptavidin-XL665 (both from Cisbio Bioassays, Codolet, France)], were added.
The mixture was incubated in the dark for one hour at 22° C. and then overnight at 4° C. The formation of BCL-2/Bad complexes was determined by measuring the resonance energy transfer of the anti-His-Eu-cryptate antibody to the streptavidin-XL665 present in the reaction. For that purpose, the fluorescence emission at 620 nm and 665 nm after excitation at 330-350 nm was measured in a TR-FRET measuring instrument, for instance a Rubystar or a Pherastar (both from BMG Lab Technologies, Offenburg, Germany) or a Viewlux (Perkin-Elmer). The ratio of the emission at 665 nm and at 622 nm was used as indicator of the amount of BCL-2/Bad complexes present.
The resulting data (ratio) were normalized, taking 0% inhibition as the mean value of control measurements (usually 32 data points) where all reagents were included. In this case 50 nl DMSO were used instead of compounds. A 100% inhibition corresponded to the mean value of control measurements (usually 32 data points) where all reagents except BCL-2 were included. IC50 values were determined by regression analysis based on a 4 parameter equation (minimum, maximum, IC50, Hill; Y=Max+(Min−Max)/(1+(X/IC50)^Hill) using the Screener Software (Genedata).

In data set [1] the test system is SUDHL5. The data set can be described thus: Induction of caspase-3/7 activity, SUDHL5 (Assay 4). The note with it: SUDHL5 cells. The data set is classed as cell-based. The method in brief: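 DLBCL lines treated with compounds for 3 h at 37° C.; caspase-3/7 activity read by Caspase-Glo 3/7 luminescence. Medium-only background subtracted; EC50 fitted with bottom fixed at 1 and top set to reference compound's maximal induction.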

The subject of data set [2] is SUDHL5. As to the kind of experiment: Induction of cytotoxicity, SUDHL5 (Assay 6). The note with it: read-out: IC50 Cytotox SUDHL5 [M] (median), SUDHL5 cells, 5 h, CellTiter-Glo. A general note: ATP-based viability assays read luminescence as a measure of living cells.
Description: (§2) In principle, compounds that induce apoptosis will concomitantly induce cell cytotoxicity. Therefore, cytotoxicity assays were run in parallel in SUDHL5 and SUDHL10 cells.
(§3) The different cell lines were plated in culture medium (RPMI 1640 [GIBCO #22400-089] supplemented with 10% Fetal Bovine Serum) at a density of 3,300 cells in 30 μl/well in a sterile, solid black, flat bottom, polystyrene, TC-treated 384-well microplate (Corning #3571) using Multidrop Combi Reagent Dispenser. As a control, medium without cells was also added to the plate. Cells were incubated in a humidified incubator at 37° C. overnight. On the next day, the cells were treated with compounds (stock solution, 10 mM in DMSO) using the HP D300 Digital Dispenser in a concentration range of 3.3×10e-5 M (33 μM) to 5×10e-9 M (5 nM) in a single-dot curve with at least 16 dilutions and a DMSO concentration of 0.33%. Rim wells were excluded. The cells were incubated for 5 h hours in a humidified incubator at 37° C. After this incubation, 30 μl of CellTiter-Glo® Luminescent Cell Viability reagent (Promega, G7573) was added to each well using the Multidrop Combi Reagent Dispenser, followed by 15 min incubation on a shaker at room temperature. Finally, luminescence was read at 0.1 ms, with a gain of 3000 using the PHERAstar FS microplate reader (BMG Labtech).
(§4) The Bella DRC Master Sheet was used to calculate IC50s, with fixed CI=0 and C0=1.
The test system of a further data set is SUDHL10. As to the kind of experiment: Induction of cytotoxicity, SUDHL10 (Assay 6). As to conditions: read-out: IC50 Cytotox SUDHL10 [M] (median), SUDHL10 cells, 5 h, CellTiter-Glo.
The next data set has as its system MV-4-11. As to the kind of experiment: Antiproliferation assay MV-4-11 (Assay 7). The data set is classed as cell-based. As to conditions: MV-4-11 cells, CellTiter-Glo, single determinations, read-out: IC50 Antiproli MV-4-11. The procedure, abridged:
(§1)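 CellTiter-Glo luminescence readout; 72 h compound exposure, 37 °C, humidified; rim wells excluded; time-zero reference plate plated in parallel and read identically.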

In a further data set the test system is A2780. As to the kind of experiment: Antiproliferation assay A2780 (Assay 7). The note with it: A2780 cells, 72 h, CellTiter-Glo, single determinations, read-out: IC50 Antiproli A2780. The data set is classed as cell-based. The procedure, abridged:
as §1

The mark [3] stands for this setting: Homo sapiens, SU-DHL-5, 3 h, Caspase-Glo 3/7, median.

The IC50 is the concentration at which inhibition is half-maximal. For orientation: EC50 means the concentration that produces a half-maximal response. A low value points to greater potency.

Sequence of BCL-2 (P10415 1-211): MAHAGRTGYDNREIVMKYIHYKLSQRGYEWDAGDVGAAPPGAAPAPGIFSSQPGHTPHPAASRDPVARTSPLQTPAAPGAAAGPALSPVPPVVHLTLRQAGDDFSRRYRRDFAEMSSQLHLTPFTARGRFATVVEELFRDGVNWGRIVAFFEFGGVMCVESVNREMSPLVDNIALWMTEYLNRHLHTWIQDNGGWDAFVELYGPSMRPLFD
Description for SUDHL10: as §2, §3, §4

Turning to `Cc1c2c(nn1C)COCCCCn1c(C(=O)O)c(CCCOc3ccc(F)c4ccccc34)c3ccc(F)c-2c31` (racemic) [Example 15, (rac)-13-fluoro-1-(3-((4-fluoronaphthalen-1-yl)oxy)propyl)-11,12-dimethyl-4,5,6,7,9,11-hexahydropyrazolo[4′,3′:9,10][1]oxa[6]azacycloundecino[8,7,6-hi]indole-2-carboxylic acid], the IC50 is more than 20000 nM against BCL-2; 1.1e-06 M with SUDHL5 [2] (Homo sapiens, SU-DHL-5, 5 h); 3e-06 M in the data set on SUDHL10 (Homo sapiens, SU-DHL10, 5 h). This compound came in with an EC50 in the data set on SUDHL5 [1] (setting [3]) of 970 nM.
Turning to `Cc1c2c(nn1C)COCCCCn1c(C(=O)O)c(CCCOc3cccc4c3CCCC4)c3ccc(F)c-2c31` (racemic) [Example 18, (rac)-13-fluoro-11,12-dimethyl-1-(3-((5,6,7,8-tetrahydronaphthalen-1-yl)oxy)propyl)-4,5,6,7,9,11-hexahydropyrazolo[4′,3′:9,10][1]oxa[6]azacycloundecino[8,7,6-hi]indole-2-carboxylic acid], the IC50 is 3530 nM in the data set on MV-4-11 (Homo sapiens, MV4-11, 72 h); 2890 nM and 5610 nM in the data set with MV-4-11 (72 h); more than 20000 nM at BCL-2; 8.8e-07 M in the data set with SUDHL5 [2] (Homo sapiens, SU-DHL-5, 5 h); 1.7e-06 M with SUDHL10 (Homo sapiens, SU-DHL10, 5 h). The compound also yielded an EC50 with SUDHL5 [1] (setting [3]) of 840 nM.
For `Cc1cc(OCCCc2c(C(=O)O)n3c4c(c(F)ccc24)-c2c(nn(C)c2C)COCCCC3)cc(C)c1Cl` (racemic) [Example 20, (rac)-1-(3-(4-chloro-3,5-dimethylphenoxy)propyl)-13-fluoro-11,12-dimethyl-4,5,6,7,9,11-hexahydropyrazolo[4′,3′:9,10][1]oxa[6]azacycloundecino[8,7,6-hi]indole-2-carboxylic acid], the IC50 in the data set with MV-4-11 (Homo sapiens, MV4-11, 72 h) was 8180 nM; in the data set with MV-4-11 (72 h), 5540 nM; at BCL-2, more than 20000 nM; in the data set on SUDHL5 [2] (Homo sapiens, SU-DHL-5, 5 h) it was 1.8e-06 M; with SUDHL10 (Homo sapiens, SU-DHL10, 5 h), 2.6e-06 M. For the same compound, the EC50 in the data set on SUDHL5 [1] (setting [3]) is 1400 nM.
On to `CCc1c2c(nn1C)CN(C)CCCCn1c(C(=O)O)c(CCCOc3cccc4c3CCC4)c3ccc(F)c-2c31` (racemic) [Example 51, (rac)-7-[3-(2,3-dihydro-1H-inden-4-yloxy)propyl]-3-ethyl-4-fluoro-2,14-dimethyl-10,11,12,13,14,15-hexahydro-2H-pyrazolo[3′,4′:8,9][1,6]diazacycloundecino[10,11,1-hi]indole-8-carboxylic acid], for which the IC50 on BCL-2 is more than 20000 nM; with SUDHL5 [2] (Homo sapiens, SU-DHL-5, 5 h) it was 3.6e-07 M; in the data set on SUDHL10 (Homo sapiens, SU-DHL10, 5 h), 3.6e-07 M. Further, a half-maximal effect with SUDHL5 [1] (setting [3]) (EC50) was put at 230 nM.
As for `CCc1c2c(nn1C)CN(C)CCCCn1c(C(=O)O)c(CCCOc3cccc4c3CCCC4)c3ccc(F)c-2c31` (racemic) [Example 52, (rac)-3-ethyl-4-fluoro-2,14-dimethyl-7-[3-(5,6,7,8-tetrahydronaphthalen-1-yloxy)propyl]-10,11,12,13,14,15-hexahydro-2H-pyrazolo[3′,4′:8,9][1,6]diazacycloundecino[10,11,1-hi]indole-8-carboxylic acid], the IC50 against BCL-2 was more than 20000 nM; in the data set with SUDHL5 [2] (Homo sapiens, SU-DHL-5, 5 h), 4.3e-07 M; in the data set with SUDHL10 (Homo sapiens, SU-DHL10, 5 h), 3.1e-07 M. The compound further came in with an EC50 in the data set with SUDHL5 [1] (setting [3]) of 280 nM.
The like results for `CCc1c2c(nn1C)CN(C)CCCCn1c(C(=O)O)c(CCCOc3cccc4cc(F)ccc34)c3ccc(F)c-2c31` (racemic) [Example 53, (rac)-3-ethyl-4-fluoro-7-{3-[(6-fluoro-1-naphthyhoxy]propyl}-2,14-dimethyl-10,11,12,13,14,15-hexahydro-2H-pyrazolo[3′,4′:8,9][1,6]diazacycloundecino[10,11,1-hi]indole-8-carboxylic acid] were, in that order, more than 20000 nM, 3.3e-07 M, 6.9e-07 M and 380 nM.
The like results for `CCc1c2c(nn1C)CN(C)CCCCn1c(C(=O)O)c(CCCOc3cccc4ccccc34)c3ccc(F)c-2c31` (racemic) [Example 54, (rac)-3-ethyl-4-fluoro-2,14-dimethyl-7-[3-(1-naphthyloxy)propyl]-10,11,12,13,14,15-hexahydro-2H-pyrazolo[3′,4′:8,9][1,6]diazacycloundecino[10,11,1-hi]indole-8-carboxylic acid] were, in that order, more than 20000 nM, 4.5e-07 M, 1.4e-06 M and 230 nM.
On to `CCc1c2c(nn1C)COCCCCn1c(C(=O)O)c(CCCOc3cccc4ccccc34)c3ccc(F)c-2c31` (single isomer, unassigned; enantiomer 1) [Example 7, 3-ethyl-4-fluoro-2-methyl-7-{3-[(naphthalen-1-yl)oxy]propyl}-2,10,11,12,13,15-hexahydro-pyrazolo[4′,3′:9,10][1,6]oxazacycloundecino[8,7,6-hi]indole-8-carboxylic acid-N-ethylethanamine salt (enantiomer 1)], for which the IC50 was 2370 nM and 1940 nM in the data set on MV-4-11 (72 h, listed as 07); 8840 nM and 13200 nM in the data set on A2780 (listed as 07); 4.6e-07 M in the data set on SUDHL5 [2]; 1.3e-06 M in the data set on SUDHL10. Also, the response with SUDHL5 [1] (3 h, Caspase-Glo 3/7, median) was half-maximal at 370 nM (EC50).
Regarding `Cc1c2c(nn1C)COCCCCn1c(C(=O)O)c(CCCOc3cccc4cc(F)ccc34)c3ccc(F)c-2c31` (single isomer, unassigned; enantiomer 1) [Example 13, 4-fluoro-7-{3-[(6-fluoronaphthalen-1-yl)oxy]propyl}-2,3-dimethyl-2,10,11,12,13,15-hexahydro-pyrazolo[4′,3′:9,10][1,6]oxazacycloundecino[8,7,6-hi]indole-8-carboxylic acid-N-ethylethanamine salt (enantiomer 1)], the IC50 in the data set on MV-4-11 (72 h) was 679 nM and 412 nM; in the data set with A2780 it was 4110 nM; in the data set with SUDHL5 [2], 3.9e-07 M; in the data set with SUDHL10 it was 8e-07 M. The half-maximal effective concentration (EC50) in the data set on SUDHL5 [1] (3 h, Caspase-Glo 3/7, median) stood at 340 nM.
Regarding `CCc1c2c(nn1C)COCCCCn1c(C(=O)O)c(CCCOc3cccc4cc(F)ccc34)c3ccc(F)c-2c31` (single isomer, unassigned; enantiomer 1) [Example 24, 3-ethyl-4-fluoro-7-{3-[(6-fluoronaphthalen-1-yl)oxy]propyl}-2-methyl-2,10,11,12,13,15-hexahydropyrazolo[4′,3′:9,10][1,6]oxazacycloundecino[8,7,6-hi]indole-8-carboxylic acid (enantiomer 1)], the IC50 against BCL-2 is more than 20000 nM; in the data set on SUDHL5 [2] it was 3.9e-07 M; in the data set on SUDHL10 it was 6.8e-07 M.
